Converted amounts (≈) assume the structure as drawn.
Assays:
Type in all cases: functional
Fusarium graminearum = experiment: Antifungal activity against Gibberella zeae IFO 4474 by twofold dilution method
Alternaria = experiment: Antifungal activity against Alternaria maritima IFO 8618 by twofold dilution method
Bacillus subtilis = experiment: Antibacterial activity against Bacillus subtilis IFO 3108 by twofold dilution method

| Compound | MIC (Fusarium graminearum) [µg/mL] | MIC (Alternaria) [µg/mL] | MIC (Bacillus subtilis) [µg/mL] |
| --- | --- | --- | --- |
| COc1c(C)c2c(c(O)c1C/C=C(\C)CCC(=O)O)C(=O)OC2 [MYCOPHENOLIC ACID] | 200 (≈ 624 µM) | 200 (≈ 624 µM) | – |
| CC1=C2C(=CO[C@H](C)[C@H]2C)C(O)=C(C(=O)O)C1=O [CITRININ] | – | – | 25 (≈ 99.9 µM) |
